This is an account of results in patent US6686350B1, “Cell adhesion inhibitors” (Biogen, Inc., priority 1996, dated 2004).

SMILES strings stand for the structures.

T1 sequence (P13612 34-1032): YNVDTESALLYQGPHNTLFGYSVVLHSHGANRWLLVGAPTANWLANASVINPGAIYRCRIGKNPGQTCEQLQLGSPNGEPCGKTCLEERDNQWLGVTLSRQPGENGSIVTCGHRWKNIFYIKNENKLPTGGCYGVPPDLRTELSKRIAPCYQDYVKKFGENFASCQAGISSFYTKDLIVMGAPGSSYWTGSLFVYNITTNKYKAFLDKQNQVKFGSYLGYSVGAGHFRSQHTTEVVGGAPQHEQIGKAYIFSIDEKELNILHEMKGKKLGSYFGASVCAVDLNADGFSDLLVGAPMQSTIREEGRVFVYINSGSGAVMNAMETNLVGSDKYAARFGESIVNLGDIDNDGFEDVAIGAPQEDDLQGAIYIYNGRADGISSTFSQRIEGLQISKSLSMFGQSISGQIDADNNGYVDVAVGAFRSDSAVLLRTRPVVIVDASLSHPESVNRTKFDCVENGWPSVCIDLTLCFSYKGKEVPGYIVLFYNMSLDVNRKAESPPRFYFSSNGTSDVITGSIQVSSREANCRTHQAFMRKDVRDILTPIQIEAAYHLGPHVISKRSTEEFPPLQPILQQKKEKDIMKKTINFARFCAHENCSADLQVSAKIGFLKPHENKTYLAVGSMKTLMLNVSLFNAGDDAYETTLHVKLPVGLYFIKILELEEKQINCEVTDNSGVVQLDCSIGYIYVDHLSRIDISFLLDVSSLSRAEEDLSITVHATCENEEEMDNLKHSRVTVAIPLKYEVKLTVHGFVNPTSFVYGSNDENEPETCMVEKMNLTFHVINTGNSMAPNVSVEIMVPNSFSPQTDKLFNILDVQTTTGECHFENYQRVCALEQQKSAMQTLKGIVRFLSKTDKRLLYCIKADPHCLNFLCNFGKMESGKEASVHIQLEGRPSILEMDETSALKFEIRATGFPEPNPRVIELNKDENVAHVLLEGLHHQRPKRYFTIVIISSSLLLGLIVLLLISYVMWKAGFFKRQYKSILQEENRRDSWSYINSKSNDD
T1 sequence (P05556 21-798): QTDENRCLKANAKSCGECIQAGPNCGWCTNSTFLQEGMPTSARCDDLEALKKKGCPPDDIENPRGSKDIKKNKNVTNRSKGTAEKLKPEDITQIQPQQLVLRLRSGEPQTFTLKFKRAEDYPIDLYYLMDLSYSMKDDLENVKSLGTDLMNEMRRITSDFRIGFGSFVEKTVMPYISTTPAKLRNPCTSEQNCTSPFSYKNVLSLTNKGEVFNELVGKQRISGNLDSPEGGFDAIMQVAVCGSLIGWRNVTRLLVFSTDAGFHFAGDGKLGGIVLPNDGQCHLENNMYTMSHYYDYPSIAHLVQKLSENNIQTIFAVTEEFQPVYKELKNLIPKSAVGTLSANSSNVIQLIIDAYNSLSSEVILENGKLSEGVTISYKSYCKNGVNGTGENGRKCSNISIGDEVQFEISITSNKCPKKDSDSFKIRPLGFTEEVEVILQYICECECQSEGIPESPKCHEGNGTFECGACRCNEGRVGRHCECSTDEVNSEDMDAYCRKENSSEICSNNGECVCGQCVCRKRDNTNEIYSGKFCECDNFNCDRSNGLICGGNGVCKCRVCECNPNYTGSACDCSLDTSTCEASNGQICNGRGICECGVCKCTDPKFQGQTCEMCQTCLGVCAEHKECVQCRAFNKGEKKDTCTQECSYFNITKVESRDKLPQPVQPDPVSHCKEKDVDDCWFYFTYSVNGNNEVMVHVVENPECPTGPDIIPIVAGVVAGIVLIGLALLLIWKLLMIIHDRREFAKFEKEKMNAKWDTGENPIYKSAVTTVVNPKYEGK
IIb/IIIa, sequence (P08514 32-887 limits assumed): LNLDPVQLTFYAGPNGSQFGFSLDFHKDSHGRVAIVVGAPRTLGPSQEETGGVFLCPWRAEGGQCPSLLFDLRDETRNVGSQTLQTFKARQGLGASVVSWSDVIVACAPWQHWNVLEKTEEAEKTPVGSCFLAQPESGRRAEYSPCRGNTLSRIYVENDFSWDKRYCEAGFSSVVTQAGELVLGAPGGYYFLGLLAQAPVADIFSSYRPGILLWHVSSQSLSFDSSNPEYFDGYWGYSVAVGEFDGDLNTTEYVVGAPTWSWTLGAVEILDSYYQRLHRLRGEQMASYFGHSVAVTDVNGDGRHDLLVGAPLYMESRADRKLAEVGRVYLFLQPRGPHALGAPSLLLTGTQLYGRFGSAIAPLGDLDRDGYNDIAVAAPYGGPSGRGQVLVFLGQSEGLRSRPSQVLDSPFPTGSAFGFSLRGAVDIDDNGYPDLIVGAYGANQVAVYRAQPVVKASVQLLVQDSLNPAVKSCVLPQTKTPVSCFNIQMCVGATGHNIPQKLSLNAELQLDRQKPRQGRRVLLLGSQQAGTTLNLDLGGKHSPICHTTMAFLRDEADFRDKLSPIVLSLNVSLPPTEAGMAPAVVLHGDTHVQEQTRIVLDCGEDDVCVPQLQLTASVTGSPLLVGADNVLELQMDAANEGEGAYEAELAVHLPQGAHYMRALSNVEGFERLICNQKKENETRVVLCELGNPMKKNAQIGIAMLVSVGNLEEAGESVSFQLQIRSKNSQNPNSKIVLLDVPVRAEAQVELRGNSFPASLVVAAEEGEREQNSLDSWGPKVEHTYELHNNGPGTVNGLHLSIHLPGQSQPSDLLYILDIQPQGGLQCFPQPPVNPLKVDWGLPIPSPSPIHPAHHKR
IIb/IIIa, sequence (P08514 891-1039 limits assumed): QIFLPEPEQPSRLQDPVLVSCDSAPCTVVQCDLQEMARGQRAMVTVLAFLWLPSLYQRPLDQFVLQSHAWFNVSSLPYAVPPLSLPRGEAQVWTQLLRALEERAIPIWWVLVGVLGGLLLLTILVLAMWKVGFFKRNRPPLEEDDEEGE
IIb/IIIa, sequence (P05106 27-788): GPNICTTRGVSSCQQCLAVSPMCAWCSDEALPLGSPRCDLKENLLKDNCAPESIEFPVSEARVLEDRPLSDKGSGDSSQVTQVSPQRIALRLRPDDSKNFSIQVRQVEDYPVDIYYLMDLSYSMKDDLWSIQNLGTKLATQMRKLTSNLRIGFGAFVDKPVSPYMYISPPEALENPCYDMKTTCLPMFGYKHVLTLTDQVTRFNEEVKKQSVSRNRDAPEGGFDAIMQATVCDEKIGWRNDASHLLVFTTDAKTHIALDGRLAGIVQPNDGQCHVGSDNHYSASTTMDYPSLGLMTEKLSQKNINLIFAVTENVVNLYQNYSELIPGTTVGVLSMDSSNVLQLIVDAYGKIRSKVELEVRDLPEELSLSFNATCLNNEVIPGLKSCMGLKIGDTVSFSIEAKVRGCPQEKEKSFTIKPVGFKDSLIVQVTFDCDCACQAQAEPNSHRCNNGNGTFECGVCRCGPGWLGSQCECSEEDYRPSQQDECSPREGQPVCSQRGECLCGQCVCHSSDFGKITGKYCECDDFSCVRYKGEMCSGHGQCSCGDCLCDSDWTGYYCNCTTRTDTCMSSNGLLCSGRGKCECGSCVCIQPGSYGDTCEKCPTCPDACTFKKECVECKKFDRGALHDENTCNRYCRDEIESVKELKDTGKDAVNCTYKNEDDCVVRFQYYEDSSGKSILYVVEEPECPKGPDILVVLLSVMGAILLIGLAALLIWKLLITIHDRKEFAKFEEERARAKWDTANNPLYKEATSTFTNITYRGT

One data set has as its target T1, VLA-4 (Homo sapiens, UniProt P05556+P13612).
T1 construct: endogenous in cells; host or cells: Jurkat cells
The data set is described as follows: VLA-4 direct binding assay (VCAM-IgG alkaline phosphatase conjugate binding to Jurkat cells). The following applies: Table 1, Structure-Activity; assay and unit inferred; read-out: Act. The text has this:
A direct binding assay may also be employed to quantitate the inhibitory activity of the compounds of this invention. (“DBA”) In direct binding assays, for example, a VCAM-IgG fusion protein containing the first two immunoglobulin domains of VCAM (D1D2) attached above the hinge region of an IgG1 molecule (“VCAM 2D-IgG”), is conjugated to a marker enzyme, such as alkaline phosphatase (“AP”). The synthesis of this VCAM-IgG fusion is described in PCT publication WO 90/13300, the disclosure of which is herein incorporated by reference. The conjugation of that fusion to a marker enzyme can be achieved by cross-linking methods well-known in the art.
The VCAM-IgG enzyme conjugate is then placed in the wells of a multi-well filtration plate, such as that contained in the Millipore Multiscreen Assay System (Millipore Corp., Bedford, Mass.). Varying concentrations of the test inhibitory compound are then added to the wells followed by addition of VLA-4-expressing cells. The cells, compound and VCAM-IgG enzyme conjugate are mixed together and allowed to incubate at room temperature.
Following incubation, the wells are vacuum drained, leaving behind the cells and any bound VCAM. Quantitation of bound VCAM is determined by adding an appropriate calorimetric substrate for the enzyme conjugated to VCAM-IgG and determining the amount of reaction product. Decreased reaction product indicates increased binding inhibitory activity. The protocol is described more specifically below:
1. Block a 96 well Millipore Multiscreen Assay System filtration plate^1 with 200:l/well of blocking buffer (1×Phosphate Buffered Saline, 0.1%Tween 20, 1%BSA) for at least 1 hour at room temperature.
2. Drain the plate with the vacuum manifold, and wash with 200 μl/well of assay buffer (Tris Buffered Saline, 0.1% BSA, 2 mM glucose, 10 mM HEPES, pH 7.5) draining the plate in between. Repeat twice. Then blot the plate bottom on paper to remove excess buffer.
3. Prepare a 4 μg/ml VCAMIg-AP solution (Alkaline phosphatase coupled to VCAMIg) in assay buffer and filter with a 0.2:low protein binding syringe filter (Gelman Sciences #4454). From this stock, prepare a 0.4 μg/ml working solution of VCAMIg-AP in assay buffer. Add 25:l of 0.4 μg/ml VCAMIg-AP to every well.
5. Prepare dilutions of compounds to be tested in assay buffer. Concentrations should be 4× the desired final concentration and run in triplicate. Add 25 μl of the compound dilutions to designated wells.
7. Jurkat cells are centrifuged to remove cell culture media and washed once in assay buffer. Resuspend the washed Jurkat cells to a concentration of 8×10^6/ml in assay buffer containing 2 mM MnCl2. Pipeting the mixture up and down to ensure a uniform cell suspension. Add 50:l of cell suspension to each well except the NSB wells.
8. Gently tap the sides of the plate to mix well contents. Incubate the plate for 60 minutes at room temperature (RT).
9. Place the plate on the vacuum manifold to drain the well contents. Wash twice with 100 μl/well of wash buffer (assay buffer containing 1 mM MnCl2). Drain the plate and blot on paper towels.
10. Add 10 mg/ml of 4-Nitro phenyl phosphate to Substrate buffer (0.1M glycine, 1 mM ZnCl2, 1 mM MgCl2, pH 10.5). Add 100 μl/well and incubate for exactly 30 minutes at RT.
11. To stop the reaction, add 100 μl/well of 3N NaOH.
12. Read the 96-well plate in a Molecular Devices ELISA platereader at 405 nm. Analyze data with SoftMax software.
Consider `CCOc1cc(NC(=O)Cc2ccc(NC(=O)Nc3ccccc3C)cc2)cc(OCCCC(=O)O)c1` [RX27], for which the IC50 came out at 50 nM. Regarding `COc1ccc([C@H](CC(=O)O)NC(=O)C(CC(=O)Nc2ccc(NC(=O)c3ccccc3)cc2)CC(C)C)cc1OC` (stereo partly shown) [SX3], the IC50 is 165 nM.

In the case of `COc1ccc(C(CC(=O)O)NC(=O)C(CC(=O)NCc2ccccc2)CC(C)C)cc1` (stereo not shown) [SX6], the IC50 amounted to 6750 nM.

Turning to `Cc1ccccc1NC(=O)Nc1ccc(NC(=O)CC(CC(C)C)C(=O)N[C@@H](CC(=O)O)CN2CCOCC2)cc1` (stereo partly shown) [SX7], the IC50 came to 5980 nM.

With `COc1ccc([C@H](CC(=O)O)NC(=O)C(C)CC(=O)Nc2ccc(NC(=O)Nc3ccccc3C)cc2)cc1OC` (stereo partly shown) [SX9], the IC50 was found to be 5120 nM. With `COc1ccc(C(CC(=O)O)NC(=O)C(CC(=O)Nc2ccc(NC(=O)Nc3ccccc3C)cc2)CC(C)C)cc1` (stereo not shown) [SX13], the IC50 turned out to be 3490 nM. The same measure, in the same setting: the value for `COc1ccc([C@H](CC(=O)O)NC(=O)C(CC(=O)Nc2ccc(CCCc3ccccc3)cc2)CC(C)C)cc1OC` (stereo partly shown) [SX14] was 8240 nM; that for `COc1ccc([C@H](CC(=O)O)NC(=O)C(CC(=O)Nc2ccc(C(N)=O)cc2)CC(C)C)cc1OC` (stereo partly shown) [SX15] was 3000 nM. Same read-out and setting: the value for `COc1ccc([C@H](CC(=O)O)NC(=O)C(N)CC(=O)Nc2ccc(NC(=O)Nc3ccccc3C)cc2)cc1OC` (stereo partly shown) [SX19] was 1940 nM.

Take `COc1ccc(C(CC(=O)O)NC(=O)C(CC(=O)Nc2ccc(NC(=O)Nc3ccccc3)cc2)CC(C)C)cc1` (stereo not shown) [SX23]: the IC50 stood at 1330 nM.

Consider `Cc1ccccc1NC(=O)Nc1ccc(NC(=O)C2CC2C(=O)N[C@@H](CC(=O)O)c2ccc3c(c2)OCO3)cc1` (stereo partly shown) [SX25], for which the IC50 was found to be 810 nM.

For the compound `Cc1ccccc1NC(=O)Nc1ccc(N2CC[C@@H](CC(=O)N[C@H](C)CC(=O)O)C2=O)cc1` [SX26], the IC50 stood at 769 nM. In the case of `COc1ccc(C(CC(=O)O)NC(=O)C(CC(=O)NCc2ccccc2)CC(C)C)cc1` (stereo not shown) [SX28], the IC50 was 717 nM. Same read-out and setting: as for `COc1ccc([C@H](CC(=O)O)NC(=O)C(CC(=O)Nc2ccc(COCc3ccccc3)cc2)CC(C)C)cc1OC` (stereo partly shown) [SX29], the figure is 700 nM; as for `COc1ccc(C(CC(=O)O)NC(=O)[C@@H](CC(=O)Nc2ccc(COc3ccccc3C)cc2)CC(C)C)cc1OC` (stereo partly shown) [SX31], 680 nM. Still for that read-out and setting: as for `COc1ccc(C(CC(=O)O)NC(=O)C(CC(=O)Nc2ccc(CCSc3ccccc3C)cc2)CC(C)C)cc1OC` (stereo not shown) [SX32], the figure is 660 nM; as for `Cc1ccccc1NC(=O)Nc1ccc(CNC(=O)C(CC(=O)NC(CC(=O)O)c2ccc3c(c2)OCO3)CC(C)C)cc1` (stereo not shown) [SX34], 500 nM.

As for `Cc1ccccc1NC(=O)Nc1ccc(NC(=O)CCC(=O)N[C@H](C)CC(=O)O)cc1` [SX35], the IC50 is 468 nM. The same measure, in the same setting: the value for `COc1ccc([C@H](CC(=O)O)NC(=O)C(O)CC(=O)Nc2ccc(NC(=O)Nc3ccccc3C)cc2)cc1OC` (stereo partly shown) [SX38] was 404 nM. Consider `COc1ccc([C@H](CC(=O)O)NC(=O)C(CC(=O)Nc2ccc(CCc3ccccc3C)cc2)CC(C)C)cc1OC` (stereo partly shown) [SX39], for which the IC50 amounted to 397 nM.

In the case of `COc1ccc([C@H](CC(=O)O)NC(=O)C(CC(=O)Nc2ccc(/C=C/c3ccccc3C)cc2)CC(C)C)cc1OC` (stereo partly shown) [SX40], the IC50 came to 335 nM. On the same count and under the same terms, the value for `COc1ccc([C@H](CC(=O)O)NC(=O)C(CC(=O)Nc2ccc(NC(=O)Nc3ccccc3)cc2)CC(C)C)cc1OC` (stereo partly shown) [SX41] was 310 nM.

Regarding `COc1ccc([C@H](CC(=O)O)NC(=O)C(CC(=O)Nc2ccc(NC(=O)NS(=O)(=O)c3ccccc3C)cc2)CC(C)C)cc1OC` (stereo partly shown) [SX42], the IC50 was determined as 298 nM.

`CC(CC(=O)Nc1ccc(NC(=O)Nc2ccccc2)cc1)C(=O)N[C@H](C)CC(=O)O` (stereo partly shown) [SX43]: the IC50 is 247 nM. The same measure, in the same setting: as for `COc1ccc(C(CC(=O)O)NC(=O)[C@@H](CC(=O)Nc2ccc(NC(=O)Nc3ccccc3C)cc2)CC(C)C)cc1OC` (stereo partly shown) [SX44], the figure is 233 nM. As for `COc1ccc([C@H](CC(=O)O)NC(=O)CCC(=O)Nc2ccc(NC(=O)Nc3ccccc3)c(O)c2)cc1OC` [SX45], the IC50 turned out to be 216 nM.

Take `COc1ccc([C@H](CC(=O)O)NC(=O)C(CC(=O)Nc2ccc(NC(=O)Nc3ncccc3C)cc2)CC(C)C)cc1OC` (stereo partly shown) [SX46]: the IC50 turned out to be 200 nM. Consider `COc1ccc(C(CC(=O)O)NC(=O)C(CC(=O)Nc2ccc(NC(=O)Nc3ccccc3C)cc2)NS(C)(=O)=O)cc1OC` (stereo not shown) [SX47], for which the IC50 was determined as 196 nM. Still for that read-out and setting: the value for `Cc1ccccc1NC(=O)Nc1ccc(N(C)C(=O)CCC(=O)N[C@H](C)CC(=O)O)cc1` [SX48] was 195 nM; that for `Cc1ccccc1NC(=O)Nc1ccc(NC(=O)CC(CC(C)C)C(=O)NC(C)CC(=O)O)cc1` (stereo not shown) [SX50] was 167 nM; that for `COc1ccc(C(CC(=O)O)NC(=O)CCC(=O)Nc2ccc(NC(=O)Nc3ccccc3C)cc2)cc1OC` (stereo not shown) [SX51] was 142 nM. `COc1ccc([C@H](CC(=O)O)NC(=O)C(C)CC(=O)Nc2ccc(NC(=O)Nc3ccccc3)cc2)cc1OC` (stereo partly shown) [SX53]: the IC50 stood at 65 nM. The same measure, in the same setting: as for `C=CC[C@H](CC(=O)O)NC(=O)C(C)CC(=O)Nc1ccc(NC(=O)Nc2ccccc2C)cc1` (stereo partly shown) [SX54], the figure is 58.5 nM; as for `Cc1ccccc1NC(=O)Nc1ccc(NC(=O)C[C@@H](CC(C)C)C(=O)NC(CC(=O)O)c2ccc3c(c2)OCO3)cc1` (stereo partly shown) [SX56], 55 nM. For the compound `Cc1ccccc1NC(=O)Nc1ccc(CC(=O)Nc2ccccc2OCCC(=O)O)cc1` [UX1], the IC50 stood at 4500 nM.

Test system in the next data set: not given
Assay: not given
Conditions: not given
In the case of `COCCC(=O)N(CCC(=O)O)CC(=O)N(CCC(C)C)CC(=O)Nc1ccc(NC(=O)Nc2ccccc2C)cc1` [AY44], the melting point – broadly, the temperature, or range, at which the solid turns liquid – fell in the range of 164 to 166 °C.

For the next data set, the target named is IIb/IIIa (Homo sapiens, UniProt P05106+P08514). Briefly: IIb/IIIa inhibitory activity (receptor-ligand binding or platelet aggregation). The settings on record: qualitative statement. The text has this:
In a basic embodiment, therefore, one skilled in the art first identifies a compound having IIb/IIIa inhibitory activity. Compounds having IIb/IIIa inhibitory activity are well known to those skilled in the art, and are readily available, see, e.g., Table 2 and the references incorporated herein in the Background of the Invention. For purposes of this invention, one skilled in the art may use any of these known compounds. Alternatively, one may determine in assays known to those skilled in the art whether a particular compound has IIB/IIIa activity. If the assay is positive, then the scaffold will be useful in the present invention. Assays for IIb/IIIa inhibitory activity are well known in the art. […] (WO 093/00095, specifically incorporated herein by reference.) Additionally, the aforementioned binding to ligands can be assessed by one skilled in the art in a platelet aggregation assay.
For the compound `CN(CC(=O)N1CCC(C2CCNCC2)CC1)C(=O)CN(CCC(=O)O)C(=O)c1ccccc1` [Compound B], the IIb/IIIa inhibitory activity entry was “potent IIB/IIIa inhibitor”.
